Experimental data published in PMC3836994, “Killer Bee Molecules: Antimicrobial Peptides as Effector Molecules to Target Sporogonic Stages of Plasmodium” (PLoS Pathogens, 2013).
No end group written: not given here.

How the values were obtained:
[1] = test system: Anopheles gambiae Sua 4.0 cells; experiment: Sua 4.0 mosquito cell viability (erythrosin B exclusion); assay type: cell-based; design: dose or concentration left out as unconfirmed; details: after 48 h culture; for Average viability of cells (3 replicates), peptide: erythrosin B exclusion, 100 cells in triplicate wells; for Reduction in cell viability: versus control
P. berghei = P. berghei infections in Anopheles stephensi (oocyst prevalence and intensity); assay type: in vivo, Plasmodium berghei; details: for Prevalence (proportion of infected mosquitoes), peptide: 50 µM peptide in gametocytaemic mouse blood fed to An. stephensi; for Intensity (mean number of oocysts, range in parentheses), peptide: 50 µM peptide, An. stephensi
Procedure: To assess the effects of AMPs on parasites in vivo, mouse blood containing P. berghei gametocytes was obtained by cardiac puncture and 475 µl was rapidly mixed with 25 µl (50 µM final concentration) of AMP. This mixture was fed to 100 nulliparous 3–5 day old female An. stephensi. A further 475 µl of blood from the same infection was mixed with 25 µl of distilled water to act as a control. Mosquitoes were maintained at 19°C for optimum parasite development. Between 30 and 50 mosquitoes were dissected after 10 days. Mosquito wing length, numbers of retained eggs and oocysts were recorded in triplicate experiments carried out on different mosquito cohorts.

[2] = test system: Anopheles gambiae Sua 4.0 cells; experiment: Sua 4.0 mosquito cell growth (cell counts); assay type: cell-based; details: 25 µM AMP; for Average number of cells over 3 replicates, peptide: seeded 30×10^4/ml, mean of 3 experiments
[3] = test system: An. gambiae (Mali strain); experiment: Mosquito longevity after blood feeds containing AMP; assay type: in vivo, Anopheles gambiae; details: 50 µM AMP in blood on days 0 and 7; extended to 30 days
P. falciparum = experiment: Field P. falciparum from gametocyte carriers membrane-fed to An. gambiae (Mali); assay type: in vivo, Plasmodium falciparum; details: 50 µM; for Oocyst prevalence (oocyst positive mosquitoes), peptide: blood of gametocyte carriers, progeny of field An. gambiae; for Oocyst intensity (mean number of oocysts per gut, range in parentheses), peptide: field parasites and mosquitoes
[4] = test system: An. gambiae (Mali strain); experiment: Mosquito longevity after blood feeds containing AMP; assay type: in vivo, Anopheles gambiae; details: for Significance of effect on longevity over 10 days: 50 µM AMP, Kaplan-Meier, Wilcoxon, peptide vs control; for Percent alive, peptide: over 10 days, 50 µM AMP in human blood, feeds on days 0 and 7, 3 or 4 replicates
Procedure: (§1) Female An. gambiae (Mali strain, 3–5 days old) were used to establish the effects of AMPs on mosquito longevity and fecundity in the absence of confounding factors introduced with parasite infection. Two hundred 3–6 day old females were fed on human O+ whole blood supplemented with 50 µM AMP (or water control, 1 ml total volume) via feeding chambers of a Hemotek membrane feeding system. Fully engorged mosquitoes were randomly moved into four separate cages, each containing 25 mosquitoes, to facilitate monitoring. Mortality rates were recorded daily for a 10-day period, and oviposition sites were provided on the second and third night post-feeding. A second blood feed containing the same AMP was administered 7 days later to mimic the likelihood that mosquitoes would feed at least twice in the field during the development of sporogonic stages of the malaria parasite. Oviposition sites were again provided to assess fecundity through the number of eggs laid as an average per surviving mosquito. Assays for each AMP were repeated in triplicate on separate generations of mosquitoes. Due to egg retention under experimental conditions, egg production is best measured by dissecting mosquitoes that have not been provided with an oviposition site. However, this is not a feasible method of determining fecundity when longevity is also being measured.

[5] = test system: An. gambiae (Mali strain); experiment: Mosquito oviposition after blood feed containing AMP; assay type: in vivo, Anopheles gambiae; details: for Significance of effect on oviposition: 50 µM AMP, one-way ANOVA, peptide vs control; for Mean no. of eggs laid per mosquito, peptide: after first feed with 50 µM AMP, eggs laid over two nights, averaged per surviving mosquito, 3 or 4 replicates
Procedure: as §1

[6] = 3 hrs in culture, haemocytometer count of duplicate wells

Sequence	Average viability of cells (3 replicates), peptide [1] [%]	Reduction in cell viability [1] [%]	Prevalence (proportion of infected mosquitoes), peptide (P. berghei; Replicate 1)	Intensity (mean number of oocysts, range in parentheses), peptide (P. berghei; Replicate 1)	Prevalence (proportion of infected mosquitoes), peptide (P. berghei; Replicate 2)	Intensity (mean number of oocysts, range in parentheses), peptide (P. berghei; Replicate 2)	Prevalence (proportion of infected mosquitoes), peptide (P. berghei; Replicate 3)	Intensity (mean number of oocysts, range in parentheses), peptide (P. berghei; Replicate 3)	Reduction in cell number (compared to control) ([2]; 3 hrs in culture) [%]	Average number of cells over 3 replicates, peptide [2, 6] [mL⁻¹]	Reduction in cell number (compared to control) ([2]; 24 hrs in culture) [%]	Average number of cells over 3 replicates, peptide ([2]; 24 hrs in culture) [mL⁻¹]	Reduction in cell number (compared to control) ([2]; 48 hrs in culture) [%]	Average number of cells over 3 replicates, peptide ([2]; 48 hrs in culture) [mL⁻¹]	Effect on longevity over 30 days (in words) [3]	Oocyst prevalence (oocyst positive mosquitoes), peptide (P. falciparum; Replicate 1)	Oocyst intensity (mean number of oocysts per gut, range in parentheses), peptide (P. falciparum; Replicate 1)	Oocyst prevalence (oocyst positive mosquitoes), peptide (P. falciparum; Replicate 2)	Oocyst intensity (mean number of oocysts per gut, range in parentheses), peptide (P. falciparum; Replicate 2)	Significance of effect on longevity over 10 days [4]	further results
AGYLLGKINLKALAALAKKILGGAGYLLGKINLKALAALAKKIL [TP10 dimer, TP10 (dimer)]	1	99	56% (50)	2 (0–84)	66% (50)	4 (0–67)	56% (50)	2 (0–13)	20	240000	42	250000	58	260000	significant reduction in survivorship	9% (58)	<1 (0–4)	3% (38)	<1 (0–1)	N/S	Oocyst prevalence (oocyst positive mosquitoes), peptide (P. falciparum; Replicate 3): 20% (49); Oocyst intensity (mean number of oocysts per gut, range in parentheses), peptide (P. falciparum; Replicate 3): <1 (0–2); Percent alive, peptide [4]: 76%; Significance of effect on oviposition [5]: N/S; Mean no. of eggs laid per mosquito, peptide [5]: 25
KFPKFRRGIPFLFVGPSGKFPKFRRGIPFLFV [Vida 3 dimer]	58	38	33% (40)	1 (0–6)	80% (50)	37 (0–271)	76% (50)	4 (0–67)	7	280000	62	170000	72	190000	no significant long-term effects on longevity	3% (63)	<1 (0–1)	0% (45)	0	N/S	Average viability of cells (3 replicates), peptide ([1]; listed as Vida3 dimer): above 50%; Reduction in cell number (compared to control) ([2]; 24 hrs in culture, listed as Vida3 dimer): 62%; Percent alive, peptide [4]: 68%; Significance of effect on oviposition [5]: N/S; Mean no. of eggs laid per mosquito, peptide [5]: 43
